What all share (assay type): cell-based, human
Assay [1] has as its system 5637 parental cell line (P0). The experiment in a line: MTT cell viability after gemcitabine treatment, parental cell line. Conditions: C of FIG. 1. The method, then:
(§1) For cell proliferation analysis, 1×10^3 cells were seeded in a 96-well plate and cultured for 24 hours. Thereafter, the cells were treated with 1 μM GEM for 0, 24, 48, and 72 hours, and cell viability was measured at each time point. The cells were then treated with thiazolyl blue tetrazolium bromide (MTT) (Sigma-Aldrich, St. Louis, MO, USA) and reacted for 1 hour. After the reaction was completed, the medium containing MTT was fully removed, and MTT formazan was dissolved using dimethyl sulfoxide (DMSO, Duchefa Biochemie, BH Haarlem, Netherlands). Thereafter, the absorbance was measured at 540 nm using a spectrophotometer microplate reader (Victor 3).

Assay [2] concerns GRCA cell lines (gemcitabine-resistant 5637). Nature of the assay: MTT cell viability / IC50 for gemcitabine, GRCA cell lines. The method, then:
(§2) To analyze stepwise molecular mechanisms occurring during a process of anticancer drug resistance in bladder cancer patients, bladder cancer cell lines having resistance to gemcitabine (GEM) as a representative anticancer drug for bladder cancer were constructed. Specifically, five candidate groups A to E of the 5637 cell line were treated with 5 μM GEM (Eli Lilly and company, IN, USA) and cultured for 3 days. Thereafter, the residual cells were washed with phosphate-buffered saline (PBS) and replaced with a new medium. The process was repeated until the cells recovered to 90% confluency, and after each stage was completed, several cell stocks in the same state were stored in liquid nitrogen. Thereafter, the recovered cells were inoculated in a plate and additionally treated with GEM. A total of 15-phase GEM-resistant bladder cancer cell lines were constructed using the method, which were named GRCA, GRCB, GRCC, GRCD, and GRCE according to each group.
as §1

The test system of assay [3] is GRCB cell lines (gemcitabine-resistant 5637). Nature of the assay: MTT cell viability / IC50 for gemcitabine, GRCB cell lines. The method, then:
as §2, §1

[4] abbreviates: P15 cell line, compared to other candidate groups, C of FIG. 1.

`Nc1ccn([C@@H]2O[C@H](CO)[C@@H](O)C2(F)F)c(=O)n1` [GEM, gemcitabine]: the “Resistance to GEM (cell viability)” value in assay [1] was “sensitive”; in assay [2] (setting [4]), “significantly highly resistant”; in assay [3] (setting [4]), “significantly highly resistant”. Moreover, the “IC50 values for GEM” value in assay [2] (P0, P3, P7, P15 cell lines, A of FIG. 2) was “increased in a phase-dependent manner”; in assay [3] (P0, P3, P7, P15 cell lines, B of FIG. 2), “increased in a phase-dependent manner”. The “Resistance to GEM across stages” value is on record as “increased in a phase-dependent manner” in assay [2] (stages P0, P2, P3, P5, P7, P10, P15, D of FIG. 1) and “increased in a phase-dependent manner” in assay [3] (stages P0, P2, P3, P5, P7, P10, P15, E of FIG. 1).
